According to patent publication US20250313555A1, “2-SUBSTITUTED THIAZOLE AND BENZOTHIAZOLE COMPOSITIONS AND METHODS AS DUX4 INHIBITORS” (ALTAY THERAPEUTICS, INC., priority 2022, published 2025):

Assays:
Assay type in all cases: cell-based
[1] = Cell cytotoxicity 50 assay (CC50), MB200 cells, cell titer glo; conditions: human
Procedure: Cell Cytotoxicity 50 Assay Protocol (CC50) MB200 cells were grown until 80% confluent in F10 media supplemented with rhFGF basic (10 ng/ml), 15% fetal bovine serum, 1% penicillin streptomycin, 1% amphotericin B, and 1 μM dexamethasone. Adherent MB200 cells growing on 10 cm plate were then trypsinized with 1 ml of trypsin. Once the cells detached from the plate, F10 media (10 mL) was added, and the cells were strained through a 70 μm cell strainer. The cells were counted using a mixture of 10 μL cell suspension with 10 μL of trypan blue. Once the total number of cells were counted, a dilution of 200 k/mL was prepared, and the cells were seeded with 10 k cells/well in a 96-well plate in triplicate, making sure to avoid seeding cells in the edges of the plate to avoid edge effects. Using a multichannel pipet, the 200 k/mL cell dilution (50 μL/well) was added into wells B2-B11, C2-C11, and D2-D11 in triplicate. Into a deep well block (DWB), the media for the appropriate cell line (450 μL/well) was added into wells 1-10. Into DWB well 2, 10 mM of drug solution (13.5 μL) was added, followed by an additional volume of the medium (225 μL). The well was pipetted up/down four times. A portion (225 μL) was transferred to well 3, and this process was repeated up to well 10. Using a multichannel pipet, a smaller portion (50 μL/well) was removed from all wells in the DWB and then dispensed on top of the cells in each corresponding row. After adding the drug, the plate was incubated at 37° C. for 72 h. Using a multi-channel pipet, pre-warmed cell titer glo reagent (Promega) (100 μL) was added into every well. After 5 minutes, the total luminescence was measured with a luminometer. CC50 was determined with GraphPad prism template.

[2] = Cell cytotoxicity 50 assay (CC50), HEK cells; conditions: human
Procedure: Cell Cytotoxicity 50 Assay Protocol (CC50) Into a deep well block (DWB), the media for the appropriate cell line (450 μL/well) was added into wells 1-10. Into DWB well 2, 10 mM of drug solution (13.5 μL) was added, followed by an additional volume of the medium (225 μL). The well was pipetted up/down four times. A portion (225 μL) was transferred to well 3, and this process was repeated up to well 10. Using a multichannel pipet, a smaller portion (50 μL/well) was removed from all wells in the DWB and then dispensed on top of the cells in each corresponding row. After adding the drug, the plate was incubated at 37° C. for 72 h. Using a multi-channel pipet, pre-warmed cell titer glo reagent (Promega) (100 μL) was added into every well. After 5 minutes, the total luminescence was measured with a luminometer. CC50 was determined with GraphPad prism template.

MBD3L2 RNA = assay: RNA isolation and qPCR to determine MBD3L2 RNA levels in FSHD cells; conditions: 48 hrs
Procedure: Protocol for RNA Isolation and qPCR to Determine MBD3L2 RNA Levels The protocol describes the process of isolating RNA from cultured cells, converting the RNA to complementary DNA (cDNA), and measuring target gene expression using a quantitative polymerase chain reaction (qPCR). The seed FSHD cells were dispensed into a six-well dish. One day after seeding, the DUX4 inhibitor (11 μM or 3.6 μM/well) was added to the cells. After another 48 hrs, the old media was removed from the cells. The cells were washed with 2 mL of warm phosphate buffered saline (PBS). The PBS was aspirated, and the cells were lysed in each well with 350 μL of RLT buffer+3.5 μL of beta-mercaptoethanol (BME). The lysates were added to fresh, RNAse-free, labeled Eppendorf tubes. The cells were then physically disrupted for […] at level 4 of the bead disrupter to ensure the release of the RNA. The RNA was collected according to standard procedures (i.e., Qiagen kit instructions) as discussed below. The RNA concentrations were standardized to […]. In a PCR tube, RNA (2 μg) in a new Eppendorf tube was diluted with RNase-free water to a 9.5 μL final volume of […] RNA. DNase was used to remove any DNA contamination. A DNase Master Mix was prepared from 1.5 μL/reaction DNase solution (1 unit/μL, Promega), 3 μL/reaction 5× RT buffer (i.e., 250 mM Tris-HCl (pH 8.3), 375 mM KCl, 15 mM MgCl2, and 500 μl 0.1 M DTT; Promega MMLV), and 1 μL/reaction RNase inhibitor solution (RNasin, 40 units/μL, Promega). The DNase Master Mix was added to the standardized RNA samples (5.5 μL/sample). The samples were mixed by agitation and briefly spun down by centrifuge. The samples were heated to 37° C. for 60 min, 80° C. for 5 min, and then cooled to 4° C. The samples were stored on ice until the addition of the next reagents. An RT Reaction Master Mix was prepared from 5 μL/reaction 5× RT buffer, 2 μL/reaction dNTP solution (2.5 mM in each nucleotide), 1 μL/reaction RNase inhibitor solution (RNasin, 40 units/μL, Promega), 1.6 μL/reaction M-MLV reverse transcriptase (200 units/μL, Promega), and 13.4 μL/reaction deionized, RNase-free water. The RT Reaction Master Mix was cooled on ice until use. A 50 μM solution of Random Primer 6 random hexanucleotides (2 μL) was added to each sample. The samples were mixed by agitation and briefly spun down by centrifuge. The samples were heated to 70° C. for 5 min and then cooled to 4° C. The RT Reaction Master Mix (23 μL) was added to each sample. The samples were mixed by agitation and briefly spun down by centrifuge. To convert the RNA to cDNA, the samples were heated to 42° C. for 60 min, 95° C. for 5 min, and then cooled to 4° C. The cDNA product mixture was diluted 5:1 with deionized water (40 μL+160 μL). The samples were run in triplicate, with a methyl-CpG-binding protein 3-like 2 (MBD3L2) target primer and a eukaryotic translation elongation factor 1-alpha (EEF1A) control primer. An qPCR Master Mix was prepared for each primer and stored on ice (4° C.) until use. The qPCR Master Mix included 10 μL/reaction SYBR Green Mix (2×) (ThermoFisher), 1 μL/reaction of the primer mix (i.e., the MBD3L2 PCR Primer mix or the EEF1A Primer mix), and 4 μL/reaction deionized, RNase-free water. To set up the qPCR plate, 15 μL of the appropriate qPCR Master Mix was added to the appropriate wells for each target/primer. After all the targets/primers have been added to the wells, 5 μL of the sample was added to the corresponding wells so that each well is 20 μL total. The plate was covered with a clear sheet. An qPCR run was set up (QuantStudio 5) with the following cycle: […]

Row | SMILES | CC50 at 72 h [1] [µM] | CC50 at 72 h [2] [µM] | qPCR MBD3L2 Inhib at 11 µM (MBD3L2 RNA)
1 | CC(=O)NCCNC(=O)c1ccc(-c2nc3cc(F)ccc3s2)cc1 [Compound 30] | > 10 | > 10 | YES
2 | Cc1ccc2nc(-c3ccc(NC(=O)C4CCC4)cc3)sc2c1 [Compound 29] | 1 to 10 | > 10 | YES
3 | CN(C(=O)CCCN1C(=O)CCC1=O)c1ccc(-c2nc3ccccc3s2)cc1 [Compound 141] | > 10 | 1 to 10 | YES
4 | O=C(CCCc1cccnc1)Nc1ccc(-c2nc3ccccc3s2)nc1 [Compound 156] | > 10 | > 10 | YES
5 | CN(C(=O)CCN1C(=O)CCC1=O)c1ccc(-c2nc3ccccc3s2)cc1 [Compound 34] | > 10 | > 10 | YES
6 | CC(=O)NCCCC(=O)Nc1ccc(-c2nc3ccccc3s2)cn1 [Compound 49] | > 10 | > 10 | YES
7 | CC(=O)OCCCC(=O)Nc1ccc(-c2nc3ccc(C)cc3s2)cc1 [Compound 36] | > 10 | 1 to 10 | YES
8 | CC(=O)NCCCCC(=O)Nc1ccc(-c2nc3ccccc3s2)cc1 [Compound 73] | > 10 | > 10 | YES
9 | CC(=O)NCCCC(=O)Nc1ccc(-c2nc3ccccc3s2)o1 [Compound 76] | > 10 | > 10 | YES
10 | Cc1ccc2nc(-c3ccc(NC(=O)CC4CCCC4)cc3)sc2c1 [Compound 16] | > 10 | > 10 | YES
11 | CC(=O)NCCCNC(=O)c1ccc(-c2nc3cc(F)ccc3s2)cc1 [Compound 74] | > 10 | > 10 | YES
12 | CC(=O)NCCCC(=O)N(C)c1ccc(-c2nc3cc(F)ccc3s2)cc1 [Compound 145] | > 10 | > 10 | YES
13 | O=C(CCCc1cnco1)NC1CCC(c2nc3ccccc3s2)CC1 (stereo not drawn) [Compound 67] | > 10 | > 10 | YES
14 | CC(=O)NCCC(=O)Nc1ccc(-c2nc3ccccc3s2)cc1 [Compound 38] | > 10 | > 10 | YES
